Reference: patent US20250188079A1, “INHIBITING CYCLIC AMP-RESPONSIVE ELEMENT-BINDING PROTEIN (CREB)” (Forma Therapeutics, Inc., priority 2019, published 2025)

Molecular target: CBP (Homo sapiens (Human), UniProt Q92793)
Experiment: HTRF biochemical assay for CBP activity (TR-FRET, bromodomain)
Format: binding
Conditions: geometric mean, 10-point 3-fold dilution 33 μM to 1.7 nM, read-out: BROMO IC50 TRF TB CBP (μM gmean)
Summary of the method: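 Compounds were tested as 10-point, 3-fold dilutions (33 μM to 1.7 nM final) against CBP protein and peptide ligand in pH 7.5 Hepes buffer with GSH, BGG, BSA and Triton X-100 at room temperature for varying times. The TR-FRET 520/490 ratio gave % inhibition versus no-enzyme and DMSO controls, and IC50 came from 4-parameter logistic fits.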

CBP, sequence (Q92793 1085-1192): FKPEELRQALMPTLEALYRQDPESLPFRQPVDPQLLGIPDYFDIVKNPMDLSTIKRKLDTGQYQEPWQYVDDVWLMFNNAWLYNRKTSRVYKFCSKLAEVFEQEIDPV

Molecule | IC50
COC(=O)N1CCc2ccc3c(nc([C@H]4CC[C@H](C(=O)O)CC4)n3[C@@H](C)C[C@H]3CC[C@@H](OC(F)(F)F)CC3)c2C1 [Compound 226] | 0.01 to 0.1 µM
COC(=O)N1CCc2ccc3c(nc(C45CC(C(=O)O)(C4)C5)n3[C@@H](C)Cc3ccccc3)c2C1 [Compound 119] | 0.001 to 0.01 µM
COC(=O)N1CCc2ccc3c(nc(C4CCN(S(C)(=O)=O)CC4)n3[C@@H](C)Cc3ccccc3)c2C1 [Compound 139] | 0.001 to 0.01 µM
COC[C@H](Cc1ccccc1)n1c2ccc3c(c2nc1[C@H]1CC[C@H](C(=O)O)CC1)CN(C(=O)OC)CC3 [Compound 299] | 0.1 to 1 µM
COC(=O)N1CCc2ccc3c(nc(C4CCCCC4)n3C[C@H](CC(=O)O)c3cc(F)cc(F)c3)c2C1 [Compound 37] | 0.001 to 0.01 µM
COC(=O)N1CCc2c([C@H]3CCOC3)cc3c(nc(C4CCC(C(=O)O)CC4)n3[C@@H](C)Cc3ccccc3)c2C1 (stereo partly drawn) [Compound 256] | 0.01 to 0.1 µM
COC(=O)N1CCc2ccc3c(nc(-c4ccc(C(=O)O)c(F)c4)n3[C@@H](C)Cc3ccccc3)c2C1 [Compound 133] | 0.001 to 0.01 µM
COC(=O)N1CCc2ccc3c(nc(-c4ccc(C(=O)O)cc4)n3[C@@H](C)Cc3ccccc3)c2C1 [Compound 77] | 0.001 to 0.01 µM
COC(=O)N1CCc2ccc3c(nc([C@H]4CC[C@@H](OC)CC4)n3C[C@@H](C(=O)O)c3ccccc3)c2C1 [Compound 64] | 0.001 to 0.01 µM
COC(=O)N1CCc2c(C(=O)O)cc3c(nc(N4CCCCC4)n3C[C@@H](C)c3ccccc3)c2C1 [Compound 103] | 0.001 to 0.01 µM
COC(=O)N1CCc2ccc3c(nc([C@H]4CC[C@H](C(=O)O)CC4)n3[C@H](C)C[C@H]3CC[C@H](OC(F)(F)F)CC3)c2C1 [Compound 317] | 0.1 to 1 µM
COC(=O)N1CCc2ccc3c(nc(C4CCCC4)n3C[C@@H](CC(=O)O)c3ccccc3)c2C1 (single isomer, unassigned) [Compound 34] | 0.001 to 0.01 µM
COC(=O)N1CCc2ccc3c(nc([C@H]4CCC[C@H](C(=O)O)C4)n3[C@H](C)Cc3ccccc3Cl)c2C1 (single isomer, unassigned) [Compound 176] | 0.01 to 0.1 µM
COC(=O)N1CCc2ccc3c(nc([C@H]4CC[C@H](C(=O)O)CC4)n3[C@@H](CO)Cc3ccc(F)c(F)c3)c2C1 [Compound 74] | 0.001 to 0.01 µM
COC(=O)N1CCc2ccc3c(nc([C@H]4CC[C@H](C(=O)NS(C)(=O)=O)CC4)n3[C@@H](C)Cc3ccccc3)c2C1 (single isomer, unassigned) [Compound 15] | 0.001 to 0.01 µM
(1S,3S)-3-[3-[(2R)-1-(3,4-difluorophenyl)propan-2-yl]-8-(methoxycarbonyl)-3H,6H,7H,8H,9H-imidazo[4,5-h]isoquinolin-2-yl]cyclohexane-1-carboxylic acid [Compound 31] | 0.001 to 0.01 µM
COC(=O)N1CCc2ccc3c(nc([C@H]4CC[C@H](S(=O)(=O)NC(C)=O)CC4)n3[C@H](C)Cc3ccccc3)c2C1 [Compound 316] | 0.1 to 1 µM
COC(=O)N1CCc2ccc3c(nc(C4CCCCC4)n3C[C@H](CC(=O)O)c3ccc(F)c(F)c3)c2C1 (single isomer, unassigned) [Compound 189] | 0.01 to 0.1 µM
COC(=O)N1CCc2ccc3c(nc([C@@H]4CCC[C@@H](C(=O)O)C4)n3CC[C@H]3CC[C@@H](OC)CC3)c2C1 [Compound 215] | 0.01 to 0.1 µM
COC(=O)N1CCc2ccc3c(nc([C@@H]4CCC[C@@H](C(=O)O)C4)n3C[C@@H](C)c3ccc(F)c(F)c3)c2C1 (single isomer, unassigned) [Compound 148] | 0.001 to 0.01 µM

Molecule | IC50
COC(=O)N1CCc2ccc3c(nc([C@H]4CC[C@H](C(=O)O)CC4)n3[C@@H](C)Cc3c(F)cccc3F)c2C1 [Compound 289] | 0.01 to 0.1 µM
COC(=O)N1CCc2ccc3c(nc([C@H]4CC[C@H](C(=O)O)CC4)n3[C@@H](C)C(F)(F)c3ccccc3)c2C1 [Compound 338] | 0.1 to 1 µM
COC(=O)N1CCc2c(Cl)cc3c(nc([C@H]4CC[C@H](C(=O)O)CC4)n3[C@@H](C)Cc3ccccc3)c2C1 [Compound 81] | 0.001 to 0.01 µM
COC(=O)N1CCc2ccc3c(nc([C@H]4CC[C@H](C(=O)O)CC4)n3[C@H](C)CC3CCOCC3)c2C1 [Compound 265] | 0.01 to 0.1 µM
COC(=O)N1CCc2ccc3c(nc(N4CC[C@H](C(=O)O)C4)n3[C@@H](C)Cc3ccccc3)c2C1 [Compound 222] | 0.01 to 0.1 µM
COC(=O)N1CCc2ccc3c(nc([C@H]4CC[C@H](C(=O)O)CC4)n3CCn3cc(Cl)cn3)c2C1 [Compound 236] | 0.01 to 0.1 µM
COC(=O)N1CCc2ccc3c(nc(Cc4cc(O)no4)n3[C@H](C)Cc3ccccc3)c2C1 [Compound 273] | 0.01 to 0.1 µM
COC(=O)N1CCc2ccc3c(nc([C@H]4CC[C@H](C(=O)O)CC4)n3[C@@H](C)Cc3c(C)cccc3C)c2C1 [Compound 6] | 0.001 to 0.01 µM
COC(=O)N1CCc2ccc3c(nc([C@H]4CC[C@H](C(=O)O)CC4)n3[C@@H](C)Cn3ncc4ccccc43)c2C1 [Compound 88] | 0.001 to 0.01 µM
COC(=O)N1CCc2ccc3c(nc(C4CCCCC4)n3C[C@@H](C(=O)O)c3cc(F)c(Cl)cc3OC)c2C1 (single isomer, unassigned) [Compound 32] | 0.001 to 0.01 µM
COC(=O)N1CCc2ccc3c(nc(C4CCC(C(=O)O)CC4)n3[C@H](C)C[C@]3(C)CC[C@H](OC)CC3)c2C1 (stereo partly drawn) [Compound 175] | 0.01 to 0.1 µM
COC(=O)N1CCc2ccc3c(nc([C@@H]4CCC[C@@H](C(=O)O)C4)n3C(C)Cc3ccccc3)c2C1 (stereo in doubt) [Compound 99, (1R,3R)-3-[8-(methoxycarbonyl)-3-[(2S)-1-phenylpropan-2-yl]-3H,6H,7H,8H,9H-imidazo[4,5-h]isoquinolin-2-yl]cyclohexane-1-carboxylic acid] | 0.001 to 0.01 µM
COC(=O)N1CCc2ccc3c(nc(C4CCCCC4)n3C[C@@H](CC(=O)O)c3ccccc3C)c2C1 [Compound 98] | 0.001 to 0.01 µM
COC(=O)N1CCc2ccc3c(nc(-c4ccc(CC(=O)O)cc4)n3[C@@H](C)Cn3cc(Cl)cn3)c2C1 [Compound 122] | 0.001 to 0.01 µM
COC(=O)N1CCc2ccc3c(nc([C@H]4CC[C@H](C(=O)O)CC4)n3[C@@H](C)C[C@]3(C)CC[C@H](OC)CC3)c2C1 [Compound 57] | 0.001 to 0.01 µM
COC(=O)N1CCc2ccc3c(nc(C4CCCCC4)n3C[C@@H](C(=O)O)c3cc(F)ccc3OC)c2C1 (single isomer, unassigned) [Compound 11] | 0.001 to 0.01 µM
COC(=O)N1CCc2ccc3c(nc(-c4cccc(CC(=O)O)c4)n3[C@H](C)Cc3cc(F)cc(F)c3)c2C1 [Compound 322] | 0.1 to 1 µM
COC(=O)N1CCc2ccc3c(nc(C4CCCCC4)n3C[C@H](CC(=O)O)c3ccccc3C)c2C1 [Compound 115] | 0.001 to 0.01 µM
COC(=O)N1CCc2ccc3c(nc([C@H]4CCC[C@H](C(=O)O)C4)n3[C@H](C)Cc3ccccc3)c2C1 [Compound 344] | 0.1 to 1 µM
COC(=O)N1CCc2ccc3c(nc([C@H]4CC[C@H](C(=O)O)CC4)n3[C@@H](C)Cc3ccc(C)cc3)c2C1 [Compound 93] | 0.001 to 0.01 µM

Molecule | IC50
COC(=O)N1CCc2ccc3c(nc([C@H]4CC[C@H](C(=O)O)CC4)n3C[C@@H]3CCc4ccccc4C3)c2C1 [Compound 211] | 0.01 to 0.1 µM
COC(=O)N1CCc2ccc3c(nc([C@H]4CC[C@H](C(=O)O)CC4)n3[C@@H](C)CC3CCCCC3)c2C1 [Compound 200] | 0.01 to 0.1 µM
COC(=O)N1CCc2ccc3c(nc([C@H]4CC[C@@H](C(=O)O)CC4)n3CCn3cc(Cl)cn3)c2C1 [Compound 291] | 0.1 to 1 µM
COC(=O)N1CCc2ccc3c(nc([C@@H]4CC[C@H](C(=O)O)C4)n3[C@H](C)Cc3ccccc3C)c2C1 [Compound 329] | 0.1 to 1 µM
COC(=O)N1CCc2ccc3c(nc(C4CCCCC4)n3[C@@H](CO)Cc3cccc(C(=O)O)c3)c2C1 [Compound 152] | 0.001 to 0.01 µM
COC(=O)N1CCc2ccc3c(nc(N4CCC(C(=O)O)CC4)n3[C@@H](C)Cc3ccccc3Cl)c2C1 (single isomer, unassigned) [Compound 14] | 0.001 to 0.01 µM
COC(=O)N1CCc2ccc3c(nc([C@@H]4CCC[C@@H](C(=O)O)C4)n3[C@H](C)Cc3ccc(F)c(F)c3)c2C1 [Compound 217] | 0.01 to 0.1 µM
COC(=O)N1CCc2ccc3c(nc(C4CCCCC4)n3C[C@@H](C(=O)O)c3cc(F)ccc3OC)c2C1 [Compound 240] | 0.01 to 0.1 µM
COC(=O)N1CCc2ccc3c(nc([C@H]4CC[C@H](S(N)(=O)=O)CC4)n3[C@@H](C)Cc3ccccc3)c2C1 [Compound 97] | 0.001 to 0.01 µM
COC(=O)N1CCc2ccc3c(nc(C4CCCCC4)n3[C@H](C)C[C@H]3CCCC[C@H]3C(=O)O)c2C1 [Compound 239] | 0.01 to 0.1 µM
COC(=O)N1CCc2ccc3c(nc(C4CCN(C(=O)CO)CC4)n3[C@@H](C)Cc3ccccc3)c2C1 [Compound 106] | 0.001 to 0.01 µM
COC(=O)N1CCc2ccc3c(nc([C@H]4CC[C@@H](C(=O)O)CC4)n3CCc3ccccc3)c2C1 [Compound 336] | 0.1 to 1 µM
COC[C@@H](Cc1ccccc1)n1c2ccc3c(c2nc1[C@H]1CC[C@H](C(=O)O)CC1)CN(C(=O)OC)CC3 [Compound 124] | 0.001 to 0.01 µM
COC(=O)N1CCc2ccc3c(nc(C4CCCCC4)n3C[C@@H](C(=O)O)c3ccccc3)c2C1 [Compound 197] | 0.01 to 0.1 µM
COC(=O)N1CCc2ccc3c(nc(C4CCCCC4)n3C[C@H](C(=O)O)c3cccc(F)c3F)c2C1 (single isomer, unassigned) [Compound 26] | 0.001 to 0.01 µM
COC(=O)N1CCc2cc(C(=O)O)c3c(nc(C4CCCCC4)n3CCc3ccccc3)c2C1 [Compound 181] | 0.01 to 0.1 µM
COC(=O)N1CCc2ccc3c(nc([C@H]4CC[C@H](C(=O)O)CC4)n3[C@@H](C)[C@@H](O)c3ccccc3)c2C1 [Compound 92] | 0.001 to 0.01 µM
COC(=O)N1CCc2ccc3c(nc(-c4ccc(C(=O)O)c(OC)c4)n3[C@@H](C)Cc3ccccc3)c2C1 [Compound 208] | 0.01 to 0.1 µM
COC(=O)N1CCc2ccc3c(nc(N4CCC(C(=O)O)CC4)n3[C@@H](C)Cn3cc(C(F)(F)F)cn3)c2C1 [Compound 46] | 0.001 to 0.01 µM
COC(=O)N1CCc2ccc3c(nc(C4CCCCC4)n3[C@@H](C)Cc3cccc(C(=O)O)c3)c2C1 [Compound 102] | 0.001 to 0.01 µM
